Several values for one entry are separate records, joined by “and”; a condition that tells them apart may be missing. Equal values may be shown once. Entries after “also recorded” stand apart in the source; their conditions may differ.
Experiments:
[1] = Bidirectional (AP→BL, BL→AP) drug transport across Caco-2 cell monolayers in transwells: cumulative transport, Papp, efflux ratio; HPLC or radiolabeled assay; conditions: human
Procedure: (§1) The monolayers used were of between passage 20 and 65 after 15 days of growth. Each experiment was performed in duplicate using two six well-transwell culture plates. The cells were trypsinized as described earlier, and after centrifugation the pellet re-suspended in fresh DMEM (+15%), and the cells counted using a cell counter. A volume of DMEM was added enough to give a cell count of 2 × 10^6 cells per ml, and cells were seeded on the transwell culture plates at a density of 2 × 10^4 cells/cm^2 (~ 100,000 cells per well, since insert membrane growth area = 4.67 cm^2). The plates were then incubated at 37°C and 10% CO2 in a humidified chamber and the media changed every 2-3 days, by aspirating using a suction pump and replacing with an equal volume of DMEM. Transport experiments were conducted 15 to 20 days after seeding. The TEER across the cell monolayers was monitored using a Millicell-ERS in order to assess cell monolayer integrity and the monolayers considered appropriate for the experiment when the TEER values were typically above 500 cm^2 [49, 70].
(§2) Prior to transport studies, each monolayer was washed and equilibrated with the transport medium (DMEM without FBS). The medium was removed from all AP and BL compartments of the transwells and replaced with 2 ml of the transport medium (DMEM alone), to both compartments and equilibrated for 1 h (37°C, 10% CO2 incubator), after which the TEER was re-assessed and labeled. The medium was then removed from both compartments and replaced with an equal volume of pre-warmed medium containing the compound of interest at the appropriate concentration. For the AP → BL transport, 2 ml of medium containing the desired drug was placed in the AP chamber and 2 ml of the medium alone in the BL chamber, whereas 2 ml of medium containing the drug was placed in the BL and 2 ml of medium on the AP chamber for the BL → AP transport [71]. The effect of the second drug was then assessed by adding the medium containing the original drug and the drug under study to the AP side for AP → BL transport with the medium containing the original drug alone in the BL chamber, and vice-versa for the BL → AP transport. Transport in each direction was done in triplicate. The transwell plates were then incubated (37°C, 10% CO2 incubator), and 100μl of the samples from the AP and BL compartments were taken at 60, 120, 180 and 240 min and quantified either by HPLC method described earlier [45], or by the use of a liquid scintillating counter depending on the drug under study. The HPLC method involved liquid - liquid extraction followed by ultra-high performance liquid chromatography using a Hypurity C18 column and ultraviolet detection set at a wavelength of 215 nm. The mobile phase consisted of ammonium formate, acetonitrile and methanol (57:38:5 v/v). Separation was facilitated via isocratic elution at a flow rate of 1.5 ml/min. For HPLC assays, the concentration used for each drug was 20μg/ml. The concentrations that offered the best detection were selected for radiolabeled assay. […] The integrity of the CCM during the experiment was monitored by measuring the TEER at the beginning (0 min) and the end of the experiment (240min).
(§3) The results were expressed as apparent permeability coefficient (Papp, unit: cms^-1), the amount of compound transported per second. Papp values were calculated for both AP to BL (PappAtoB), and BL to AP (PappBtoA) movement of the compound. Papp was calculated using the following equation [52, 72]: • Papp (cm/s) = (dQ/dt) x (1/(ACO) • dQ/dt = Steady-state flux (dpm s^-1 or μmol s^-1) • A = Surface area of the filter (cm^2) • CO = Initial concentration in the donor chamber (dpm litre ^-1 or μM)
(§4) The quotient of secretory permeability and absorptive permeability (PappBL-AP/PappAP-BL) constitutes the efflux ratio, while the reverse (PappAP-BL/PappBL-AP) is the uptake ratio [71].

[2] = system: Caco-2 cell monolayers; experiment: as above
Procedure: as §1, §2, §3, §4

[3] = 120 min, individual samples 1-3
[4] = 180 min, individual samples 1-3
[5] = 240 min, individual samples 1-3
[6] = labelled drug is the interacting drug
[7] = mean (n=3) after 60 min, drug A alone, or label 'A + B' = transport of A in presence of interacting drug B, concentrations per Table 1
[8] = samples after 60min, individual samples 1-3
[9] = IVM alone (SQV experiment), 60 min, mean
[10] = IVM alone (SQV experiment), 120 min, mean
[11] = IVM alone (SQV experiment), 120 min, samples 1-3
[12] = IVM alone (SQV experiment), 180 min, mean
[13] = IVM alone (SQV experiment), 180 min, samples 1-3
[14] = IVM alone (SQV experiment), 240 min, mean
[15] = IVM alone (SQV experiment), 240 min, samples 1-3
[16] = IVM alone (SQV experiment), after 60min, individual samples
[17] = IVM alone (SQV experiment), after 60min, mean
[18] = IVM alone, 60 min, individual experiments 1-3
[19] = IVM alone, 120 min, individual experiments 1-3
[20] = IVM alone, 180 min, individual experiments 1-3
[21] = IVM alone, 240 min, individual experiments 1-3
[22] = [3H] IVM alone, 60 min, individual experiments 1-3
[23] = [3H] IVM alone, 60 min, mean, n=3
[24] = [3H] IVM alone, 120 min, individual experiments 1-3
[25] = [3H] IVM alone, 120 min, mean, n=3
[26] = [3H] IVM alone, 180 min, individual experiments 1-3
[27] = [3H] IVM alone, 180 min, mean, n=3
[28] = [3H] IVM alone, 240 min, individual experiments 1-3
[29] = [3H] IVM alone, 240 min, mean, n=3
[30] = [3H] IVM alone, after 60 min, mean, n=3
[31] = [3H] IVM alone, after 60 min, samples 1-3
[32] = samples after 60min, individual samples 1-3, IVM alone
[33] = samples after 60min, mean n=3, IVM alone

`O=C1Nc2ccc(Cl)cc2[C@@](C#CC2CC2)(C(F)(F)F)O1` [EFV, efavirenz] showed a Papp A→B at 60 min ([1]; Caco-2, Papp AP → BL, mean (n=3) after 60 min, drug A alone, or label 'A + B' = transport of A in presence of interacting drug B, concentrations per Table 1) of 16.5 ×10⁻⁶ cm/s, a Papp B→A at 60 min ([1]; Caco-2, Papp BL → AP, mean (n=3) after 60 min, drug A alone, or label 'A + B' = transport of A in presence of interacting drug B, concentrations per Table 1) of 10.8 ×10⁻⁶ cm/s and a Papp A→B at 60 min ([1]; Caco-2, PappAB, Papp, samples after 60min, individual samples 1-3) of 20 ×10⁻⁶ cm/s. The Papp B→A at 60 min ([1]; Caco-2, PappBA, Papp, samples after 60min, individual samples 1-3) was 13.4 ×10⁻⁶ cm/s, the “Apical to basal transport (cumulative, receiver)” value ([2]; 60 min, individual samples 1-3) was 0.31 pmoles (2×) and 0.32 pmoles and the “Basal to apical transport (cumulative, receiver)” value ([2]; 60 min, individual samples 1-3) was 0.30 pmoles (2×) and 0.25 pmoles. For the same compound, the “Apical to basal transport (cumulative, receiver), Mean” value ([2]; 60 min, mean n=3) was 0.32 pmol, the “Basal to apical transport (cumulative, receiver), Mean” value ([2]; 60 min, mean n=3) was 0.28 pmol and the “Apical to basal transport (cumulative, receiver)” value [2, 3] was 0.61 pmol and 0.54 pmol and 0.55 pmol. The “Basal to apical transport (cumulative, receiver)” value [2, 3] was 0.53 pmol and 0.50 pmol and 0.57 pmol, the “Apical to basal transport (cumulative, receiver), Mean” value ([2]; 120 min, mean n=3) was 0.56 pmol and the “Basal to apical transport (cumulative, receiver), Mean” value ([2]; 120 min, mean n=3) was 0.53 pmol. For the same compound, the “Apical to basal transport (cumulative, receiver)” value [2, 4] was 0.67 pmol and 0.70 pmol and 0.71 pmol, the “Basal to apical transport (cumulative, receiver)” value [2, 4] was 0.69 pmol and 0.65 pmol and 0.70 pmol and the “Apical to basal transport (cumulative, receiver), Mean” value ([2]; 180 min, mean n=3) was 0.69 pmol. The “Basal to apical transport (cumulative, receiver), Mean” value ([2]; 180 min, mean n=3) was 0.68 pmol, the “Apical to basal transport (cumulative, receiver)” value [2, 5] was 0.78 pmol and 0.86 pmol and 0.82 pmol and the “Basal to apical transport (cumulative, receiver)” value [2, 5] was 0.86 pmol and 0.78 pmol and 0.84 pmol. The “Apical to basal transport (cumulative, receiver), Mean” value ([2]; 240 min, mean n=3) was 0.82 pmol, the “Basal to apical transport (cumulative, receiver), Mean” value ([2]; 240 min, mean n=3) was 0.83 pmol and the “Effect on the transport of PZQ” value [2, 6] was “did not affect”. For the same compound, the Papp AP → BL [2, 7] was 16.5 ×10⁻⁶ cm/s, the Papp BL → AP [2, 7] was 10.8 ×10⁻⁶ cm/s and the PappAB Papp [2, 8] was 15.9 ×10⁻⁶ cm/s and 13.5 ×10⁻⁶ cm/s. For the same compound, the PappBA Papp [2, 8] was 9.29 ×10⁻⁶ cm/s and 9.67 ×10⁻⁶ cm/s.
In the case of `CC[C@H](C)[C@H]1O[C@]2(CC[C@@H]1C)C[C@@H]1C[C@@H](C/C=C(\C)[C@@H](O[C@H]3C[C@H](OC)[C@@H](O[C@H]4C[C@H](OC)[C@@H](O)[C@H](C)O4)[C@H](C)O3)[C@@H](C)/C=C/C=C3\CO[C@@H]4[C@H](O)C(C)=C[C@@H](C(=O)O1)[C@]34O)O2` [IVM, ivermectin], the “Apical to basal transport (cumulative, receiver)” value ([2]; 60 min, individual samples 1-3) is reported as 0.57 pmol and 0.44 pmol and 1.00 pmol, the “Basal to apical transport (cumulative, receiver)” value ([2]; 60 min, individual samples 1-3) is reported as 0.65 pmol and 0.55 pmol and 0.96 pmol and the “Apical to basal transport (cumulative, receiver), Mean” value ([2]; 60 min, mean n=3) is reported as 0.67 pmol. For the same compound, the “Basal to apical transport (cumulative, receiver), Mean” value ([2]; 60 min, mean n=3) was 0.72 pmol, the “Apical to basal transport (cumulative, receiver)” value [2, 3] was 0.50 pmol and 0.61 pmol and 1.00 pmol and the “Basal to apical transport (cumulative, receiver)” value [2, 3] was 1.34 pmol and 1.05 pmol and 1.67 pmol. The “Apical to basal transport (cumulative, receiver), Mean” value ([2]; 120 min, mean n=3) was 0.71 pmol, the “Apical to basal transport (cumulative, receiver)” value [2, 4] was 0.66 pmol and 0.77 pmol and 1.54 pmol and the “Basal to apical transport (cumulative, receiver)” value [2, 4] was 1.45 pmol and 1.96 pmol. The “Apical to basal transport (cumulative, receiver), Mean” value ([2]; 180 min, mean n=3) was 0.99 pmol, the “Basal to apical transport (cumulative, receiver), Mean” value ([2]; 180 min, mean n=3) was 1.63 pmol and the “Apical to basal transport (cumulative, receiver)” value [2, 5] was 0.96 pmol and 0.81 pmol and 1.30 pmol. The “Basal to apical transport (cumulative, receiver)” value [2, 5] was 2.52 pmol and 1.59 pmol and 2.27 pmol, the “Apical to basal transport (cumulative, receiver), Mean” value ([2]; 240 min, mean n=3) was 1.03 pmol and the “Basal to apical transport (cumulative, receiver), Mean” value ([2]; 240 min, mean n=3) was 2.13 pmol. For the same compound, the “Apical to basal transport Mean” value [2, 9] was 11.45 fmol, the “Basal to apical transport Mean” value [2, 9] was 11.69 fmol and the “Basal to apical transport” value ([2]; IVM alone (SQV experiment), 60 min, samples 1-3) was 12.29 fmol and 9.26 fmol. For the same compound, the “Apical to basal transport Mean” value [2, 10] was 15.92 fmol, the “Basal to apical transport Mean” value [2, 10] was 17.90 fmol and the “Apical to basal transport” value [2, 11] was 14.08 fmol and 21.31 fmol and 12.37 fmol. The “Basal to apical transport” value [2, 11] was 21.06 fmol and 15.84 fmol and 16.78 fmol, the “Apical to basal transport Mean” value [2, 12] was 20.75 fmol and the “Basal to apical transport Mean” value [2, 12] was 25.75 fmol. For the same compound, the “Apical to basal transport” value [2, 13] was 23.29 fmol and 18.34 fmol and 20.63 fmol, the “Basal to apical transport” value [2, 13] was 26.26 fmol and the “Apical to basal transport Mean” value [2, 14] was 25.60 fmol. For the same compound, the “Basal to apical transport Mean” value [2, 14] was 35.30 fmol, the “Apical to basal transport” value [2, 15] was 21.18 fmol and 30.03 fmol and 25.60 fmol and the “Basal to apical transport” value [2, 15] was 45.23 fmol and 24.14 fmol and 36.53 fmol. For the same compound, the “Apical to basal transport Conc. Basal” value [2, 16] was 15.84 fmol and 11.06 fmol and 7.45 fmol, the “Basal to apical transport Conc. Apical” value [2, 16] was 13.53 fmol and the PappAB [2, 16] was 10.74 10^6 cm/s and 7.18 10^6 cm/s and 4.31 10^6 cm/s. For the same compound, the PappBA [2, 16] was 7.36 10^6 cm/s and 5.84 10^6 cm/s and 4.54 10^6 cm/s, the “PappAB Mean” value [2, 17] was 7.41 10^6 cm/s and the “PappBA Mean” value [2, 17] was 5.92 10^6 cm/s. The “Apical to basal transport” value [2, 18] was 8300 fmol and 7460 fmol and 8350 fmol, the “Basal to apical transport” value [2, 18] was 15750 fmol and 21160 fmol and the “Apical to basal transport Mean” value ([2]; IVM alone, 60 min, mean, n=3) was 8040 fmol. The “Basal to apical transport Mean” value ([2]; IVM alone, 60 min, mean, n=3) was 17700 fmol, the “Apical to basal transport” value [2, 19] was 17040 fmol and 10980 fmol and 9220 fmol and the “Basal to apical transport” value [2, 19] was 21400 fmol and 27210 fmol and 31370 fmol. For the same compound, the “Apical to basal transport Mean” value ([2]; IVM alone, 120 min, mean, n=3) was 12410 fmol, the “Basal to apical transport Mean” value ([2]; IVM alone, 120 min, mean, n=3) was 26660 fmol and the “Apical to basal transport” value [2, 20] was 20270 fmol and 13190 fmol and 16360 fmol. The “Basal to apical transport” value [2, 20] was 26810 fmol and 40700 fmol, the “Apical to basal transport Mean” value ([2]; IVM alone, 180 min, mean, n=3) was 16610 fmol and the “Basal to apical transport Mean” value ([2]; IVM alone, 180 min, mean, n=3) was 31010 fmol. The “Apical to basal transport” value [2, 21] was 16260 fmol and 22170 fmol and 13750 fmol, the “Basal to apical transport” value [2, 21] was 35200 fmol and 45800 fmol and the “Apical to basal transport Mean” value ([2]; IVM alone, 240 min, mean, n=3) was 17390 fmol. The “Basal to apical transport Mean” value ([2]; IVM alone, 240 min, mean, n=3) was 37700 fmol, the “Apical to basal transport” value [2, 22] was 14.35 fmol and 14.86 fmol and 15.44 fmol and the “Basal to apical transport” value [2, 22] was 12.86 fmol and 12.68 fmol. The “Apical to basal transport Mean” value [2, 23] was 14.88 fmol, the “Basal to apical transport Mean” value [2, 23] was 13.03 fmol and the “Apical to basal transport” value [2, 24] was 20.80 fmol and 20.34 fmol and 21.75 fmol. For the same compound, the “Basal to apical transport” value [2, 24] was 17.34 fmol and 18.56 fmol and 18.52 fmol, the “Apical to basal transport Mean” value [2, 25] was 20.96 fmol and the “Basal to apical transport Mean” value [2, 25] was 18.14 fmol. The “Apical to basal transport” value [2, 26] was 25.72 fmol and 23.95 fmol and 25.43 fmol, the “Basal to apical transport” value [2, 26] was 17.07 fmol and 23.80 fmol and 31.79 fmol and the “Apical to basal transport Mean” value [2, 27] was 25.03 fmol. The “Basal to apical transport Mean” value [2, 27] was 24.22 fmol, the “Apical to basal transport” value [2, 28] was 25.16 fmol and 26.38 fmol and 23.06 fmol and the “Basal to apical transport” value [2, 28] was 22.70 fmol and 28.67 fmol and 34.20 fmol. For the same compound, the “Apical to basal transport Mean” value [2, 29] was 24.86 fmol, the “Basal to apical transport Mean” value [2, 29] was 28.52 fmol and the “PappAB Mean” value [2, 30] was 14.06 10^6 cm/s. For the same compound, the “PappBA Mean” value [2, 30] was 11.32 10^6 cm/s, the “Apical to basal transport Conc. Apical” value [2, 31] was 101.63 fmol and 106.60 fmol and 109.59 fmol and the “Basal to apical transport Conc. Apical” value [2, 31] was 13.56 fmol. For the same compound, the “Basal to apical transport Conc. Basal” value [2, 31] was 110.67 fmol and 126.53 fmol and 111.99 fmol, the PappAB Papp [2, 31] was 16.8 ×10⁻⁶ cm/s and 13.7 ×10⁻⁶ cm/s and 11.7 ×10⁻⁶ cm/s and the PappBA Papp [2, 31] was 14.6 ×10⁻⁶ cm/s and 9.96 ×10⁻⁶ cm/s and 9.43 ×10⁻⁶ cm/s. For the same compound, the “Effect on the (efflux) transport of SQV” value [2, 6] was “significantly inhibited”, the “Effect on the efflux of EFV” value [2, 6] was “increased; also recorded: marginally significant increase” and the “Effect on the efflux transport of LPV” value [2, 6] was “significantly inhibited; also recorded: eightfold inhibition”. The “Effect on the transport of NVP” value [2, 6] was “did not appear to significantly influence”, the “PappAB Papp” value [2, 32] was 7.59 10^9 cm/s and 4.95 10^9 cm/s and 10.26 10^9 cm/s and the “PappBA Papp” value [2, 32] was 10.18 10^9 cm/s and 5.89 10^9 cm/s and 10.76 10^9 cm/s. For the same compound, the “PappAB Mean” value [2, 33] was 7.60 10^9 cm/s and the “PappBA Mean” value [2, 33] was 8.94 10^9 cm/s.

Reference: publication PMC5415745, “Drug-transporter mediated interactions between anthelminthic and antiretroviral drugs across the Caco-2 cell monolayers” (BMC Pharmacology & Toxicology, 2017)
